Assay results: PMC2776708 (Bioorganic & medicinal chemistry letters, 2009)
Read-outs that look alike come from different tables or passages of the source.

Assays:
WNV NS2B-NS3 proteinase [1] = biological target: T1, WNV NS2B-NS3 proteinase (West Nile virus, UniProt Q9Q6P4); assay: WNV NS2B-NS3 proteinase activity assay with Pyr-RTKR-AMC fluorogenic substrate; assay type: biochemical; settings: for inhibitory activity (in words): qualitative statement
Stability = assay type: physicochemical; settings: qualitative statement
WNV NS2B-NS3 proteinase [2] = biological target: T1, WNV NS2B-NS3 proteinase; settings: products of ester hydrolysis; cited from earlier work
WNV NS2B-NS3 proteinase [3] = biological target: T1, WNV NS2B-NS3 proteinase; assay: Stability in the in vitro assay buffer with WNV NS2B-NS3 proteinase; settings: Figure 2
[4] = Stability in the in vitro assay buffer without enzyme; assay type: physicochemical; settings: absence of enzyme, Figure 2

T1 sequence (Q9Q6P4 1506-1683): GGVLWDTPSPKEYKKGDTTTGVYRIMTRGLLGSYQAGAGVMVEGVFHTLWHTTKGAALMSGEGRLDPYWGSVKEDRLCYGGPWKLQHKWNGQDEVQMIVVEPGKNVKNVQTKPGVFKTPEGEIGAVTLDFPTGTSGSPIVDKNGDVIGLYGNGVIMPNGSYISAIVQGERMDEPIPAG
T1 sequence (Q9Q6P4 1375-1505): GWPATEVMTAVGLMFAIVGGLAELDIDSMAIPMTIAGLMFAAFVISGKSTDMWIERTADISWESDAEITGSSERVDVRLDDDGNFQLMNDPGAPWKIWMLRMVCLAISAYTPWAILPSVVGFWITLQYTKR

For `COc1ccc(S(=O)(=O)n2nc(OC(=O)c3ccccc3OC)cc2N)cc1` [Compound 7o], the “inhibitory activity (in words)” value (WNV NS2B-NS3 proteinase [1]) was “inactive”.

With `COc1ccc(S(=O)(=O)n2nc(OC(=O)c3ccccc3[N+](=O)[O-])cc2N)cc1` [Compound 7p] the IC50 (WNV NS2B-NS3 proteinase [1]) was over 100 µM and the “inhibitory activity (in words)” value (WNV NS2B-NS3 proteinase [1]) was “inactive”.

For `Cc1cc(NC(=O)c2ccccc2)n(-c2ccccc2)n1` [Compound 15], the “stability in pH 8 buffer (in words)” value (Stability) was “highly stable”.

In the case of `COc1ccc(S(=O)(=O)n2nc(OC(=O)c3ccccc3C)cc2N)cc1` [Compound 7f], the “inhibitory activity (in words)” value (WNV NS2B-NS3 proteinase [1]) is reported as “retained its micromolar inhibitory activity”.

`COc1ccc(Cn2nc(C)cc2CC(O)c2c(F)cccc2F)cc1` (stereo not shown) [Compound 12b] gave an IC50 (WNV NS2B-NS3 proteinase [1]) of over 100 µM.

In the case of `COc1ccc(Cn2nc(C)cc2O)cc1` [Compound 8, 1-(4-methoxybenzyl)-3-methyl-1H-pyrazol-5-ol], the IC50 (WNV NS2B-NS3 proteinase [2]) is given as over 100 µM.

Molecule `COc1ccc(Cn2nc(C)cc2CC(=O)c2ccccc2)cc1` [Compound 13a] has an IC50 (WNV NS2B-NS3 proteinase [1]) of over 100 µM.

For `COc1ccc(S(=O)(=O)n2nc(OC(=O)c3c(Cl)cccc3Cl)cc2N)cc1` [Compound 7n], the IC50 (WNV NS2B-NS3 proteinase [1]) was over 100 µM and the “inhibitory activity (in words)” value (WNV NS2B-NS3 proteinase [1]) was “complete loss of activity”.

`COc1ccc(Cn2nc(C)cc2CC(O)c2ccccc2)cc1` (stereo not shown) [Compound 12a] showed an IC50 (WNV NS2B-NS3 proteinase [1]) of over 100 µM.

In the case of `COc1ccc(S(=O)(=O)n2nc(OC(=O)c3ccccc3)cc2N)cc1` [Compound 1], the IC50 (WNV NS2B-NS3 proteinase [1]) is reported as 0.105 µM.

With `COc1ccc(Cn2nc(C)cc2OC(=O)c2ccccc2)cc1` [Compound 10a] the “stability in pH 8 buffer (in words)” value (Stability) was “significantly more stable” and the “stability in presence of enzyme (in words)” value (WNV NS2B-NS3 proteinase [3]) was “approximately the same in the presence or absence of the enzyme”.

Molecule `COc1ccc(S(=O)(=O)n2nc(OC(=O)c3cccs3)cc2N)cc1` [Compound 2] has an IC50 (WNV NS2B-NS3 proteinase [1]) of 0.11 µM.

For `COc1ccc(Cn2nc(C)cc2/C=C/c2c(F)cccc2F)cc1` [Compound 14], the “stability in pH 8 buffer (in words)” value (Stability) was “highly stable”.

With `COc1ccc(S(=O)(=O)n2nc(OC(=O)c3c(F)cccc3F)cc2N)cc1` [Compound 7a] the “stability in pH 8 buffer (in words)” value (Stability) was “significantly more stable”.

With `COc1ccc(S(=O)(=O)n2nc(OC(=O)c3ccc(F)cc3F)cc2N)cc1` [Compound 7e] the “stability in assay buffer (in words)” value [4] was “relatively stable” and the “stability in presence of enzyme (in words)” value (WNV NS2B-NS3 proteinase [3]) was “degraded rapidly”.
